Laboratory results published in patent US20230393140A1, “BINDING ASSAYS INVOLVING A PLURALITY OF SYNTHETIC COMPOUNDS, TARGETS, AND COUNTER TARGETS” (SRI International, priority 2020, published 2023).
Like-named read-outs stand apart in the source and are kept apart here. Numbered stars: 1 amine (or outer) side, 2 acyl side, 3 side chain; on linkers, the order of the positions; unused ones are H or OH. Square brackets hold non-standard residues; d marks the D form. Peptide text beside a SMILES is read from it. * marks the point of attachment. 5FAM = O=C1OC2(c3ccc(O)cc3Oc3cc(O)ccc32)c2ccc(C(=O)*)cc21; NHCH2C6H4(4-CH2CONH2) = NC(=O)Cc1ccc(CN*)cc1; X1 = O=C(Cc1ccc(CN[*:1])cc1)[*:2]

Target: T1, IL-6 (Homo sapiens, UniProt P05231)
T1 construct: purchased Creative Biomart IL6-12H
Assay: MST binding affinity of resynthesized NNP hits to IL-6
Description: Hit binding affinity to various targets were determined using Microscale Thermophoresis (MST). MST experiments were performed on a Monolith NT.115pico (NanoTemper Technologies GmbH, Munich, Germany). Measurements were performed at room temperature, in triplicate with incubation periods of 15, 30 and 45 minutes. […] Targets were labeled using Nanotemper Monolith 2nd Generation Protein Labeling Kits. RED-MALEIMIDE (Maleimide-647-dye) labeling kit was used for K-Ras and RED-NHS (NHS-647-dye) labeling kit was used for IL-6, IL-6R, TNFα and ASGPR. The buffer for the ASGPR contained 20 mM HEPES pH 7.4, 150 mM NaCl, 10 mM MgCl2, 2 mM CaCl2, 0.05% Pluronic F-127, and 1 mM DTT; for IL-6 contained 20 mM HEPES pH 7.4, 150 mM KCl, 10 mM MgCl2, and 0.1% Pluronic F-127; for the soluble IL-6 receptor 20 mM HEPES pH 7.4, 150 mM NaCl, 10 mM MgCl2, and 0.05% Tween-20; for K-Ras 20 mM HEPES pH 7.4, 150 mM NaCl, 10 mM MgCl2, 0.05% Tween-20 and 1 mM DTT; for TNFα 10 mM HEPES pH 7.4, 150 mM NaCl, 10 mM MgCl2, 0.05% Polysorbate-20. Triplicate data was analyzed using MO.AffinityAnalysis software (NanoTemper Technologies GmbH).

[1] = read-out: KD (nM) [95% conf. int], NNP2 library hit, target IL-6, one-site binding model
[2] = NNP2 library hit, target IL-6, one-site binding model

Compound | Kd [1] | Kd [2]
CC(C)C[C@H](NC(=O)[C@@H](CCCNC(=N)N)NC(=O)[C@@H](Cc1c[nH]c2ccccc12)NC(=O)Cc1ccc(CNC(=O)[C@H](Cc2ccccc2)NC(=O)[C@@H](CO)NC(=O)[C@@H](CCCNC(=N)N)NC(=O)Cc2ccc(CNC(=O)[C@@H](NC(=O)[C@@H](CO)NC(=O)[C@@H](Cc3ccc(O)cc3)NC(=O)Cc3ccc(CNC(=O)[C@H](CC(C)C)NC(=O)[C@@H](CC(C)C)NC(=O)[C@@H](Cc4ccc(O)cc4)NC(=O)c4ccc5c(c4)C(=O)OC54c5ccc(O)cc5Oc5cc(O)ccc54)cc3)C(C)C)cc2)cc1)C(=O)NCc1ccc(CC(=O)N[C@H](Cc2c[nH]c3ccccc23)C(=O)N[C@H](CCCNC(=N)N)C(=O)N[C@H](C(=O)NCc2ccc(CC(=O)N[C@H](CCCNC(=N)N)C(=O)N[C@H](Cc3ccc(O)cc3)C(=O)N[C@@H](CC(C)C)C(=O)NCc3ccc(CC(=O)N[C@H](CCC(=O)O)C(=O)N[C@H](Cc4ccc(O)cc4)C(=O)N[C@H](C(=O)NCc4ccc(CC(=O)N[C@H](CCCCN)C(=O)N[C@H](Cc5ccccc5)C(=O)N[C@@H](Cc5ccccc5)C(=O)NCc5ccc(CC(=O)N[C@H](Cc6ccc(O)cc6)C(=O)N[C@H](CCCNC(=N)N)C(=O)N[C@@H](Cc6ccccc6)C(=O)NCc6ccc(CC(N)=O)cc6)cc5)cc4)C(C)C)cc3)cc2)C(C)C)cc1 [IL6-65-1] (5FAM-[dY][dL]L[X1][dY][dS]V[X1][dR][dS]F[X1][dW][dR]L[X1][dW][dR]V[X1][dR][dY]L[X1][dE][dY]V[X1][dK][dF]F[X1][dY][dR]F-{NHCH2C6H4(4-CH2CONH2)}) | 500 nM | 
CC(C)C[C@H](NC(=O)[C@@H](CC(N)=O)NC(=O)[C@@H](CCCCN)NC(=O)Cc1ccc(CNC(=O)[C@H](C)NC(=O)[C@H](NC(=O)[C@@H](Cc2ccccc2)NC(=O)Cc2ccc(CNC(=O)[C@H](Cc3ccccc3)NC(=O)[C@@H](CCCCN)NC(=O)[C@@H](C)NC(=O)Cc3ccc(CNC(=O)[C@H](C)NC(=O)[C@@H](CCCNC(=N)N)NC(=O)[C@@H](Cc4ccccc4)NC(=O)Cc4ccc(CNC(=O)[C@H](C)NC(=O)[C@@H](CCCCN)NC(=O)[C@H]5CCCN5C(=O)Cc5ccc(CNC(=O)[C@H](Cc6ccccc6)NC(=O)[C@@H](C)NC(=O)[C@@H](C)NC(=O)Cc6ccc(CNC(=O)[C@H](Cc7ccccc7)NC(=O)[C@@H](CC(C)C)NC(=O)[C@@H](Cc7c[nH]cn7)NC(=O)c7ccc8c(c7)C(=O)OC87c8ccc(O)cc8Oc8cc(O)ccc87)cc6)cc5)cc4)cc3)cc2)[C@H](C)O)cc1)C(=O)NCc1ccc(CC(=O)N[C@@H](C(=O)N[C@H](Cc2c[nH]cn2)C(=O)N[C@@H](CC(C)C)C(=O)NCc2ccc(CC(=O)N[C@H](Cc3ccccc3)C(=O)N[C@H](CCCCN)C(=O)NCC(=O)NCc3ccc(CC(N)=O)cc3)cc2)[C@H](C)O)cc1 [IL6-65-2, Fluorescein-(D)His-(D)Leu-(L)Phe-PAM-(D)Ala-(D)Ala-(L)Phe-PAM-(D)Pro-(D)Lys-(L)Ala-PAM-(D)Phe-(D)Arg-(L)Ala-PAM-(D)Ala-(D)Lys-(L)Phe-PAM-(D)Phe-(D)Thr-(L)Ala-PAM-(D)Lys-(D)Asn- (L)Leu-PAM-(D)Thr-(D)His-(L)Leu-PAM-(D)Phe-(D)Lys-Gly-PAM] (5FAM-[dH][dL]F[X1][dA][dA]F[X1][dP][dK]A[X1][dF][dR]A[X1][dA][dK]F[X1][dF][dT]A[X1][dK][dN]L[X1][dT][dH]L[X1][dF][dK]G-{NHCH2C6H4(4-CH2CONH2)}) |  | 400 nM
CC(C)C[C@H](NC(=O)[C@@H](CCCNC(=N)N)NC(=O)[C@@H](Cc1c[nH]c2ccccc12)NC(=O)Cc1ccc(CNC(=O)[C@H](Cc2ccccc2)NC(=O)[C@@H](CO)NC(=O)[C@@H](CCCNC(=N)N)NC(=O)Cc2ccc(CNC(=O)[C@H](Cc3ccccc3)NC(=O)[C@@H](CO)NC(=O)[C@@H](CCC(=O)O)NC(=O)Cc3ccc(CNC(=O)[C@H](Cc4ccccc4)NC(=O)[C@@H](Cc4c[nH]c5ccccc45)NC(=O)[C@@H](CCCNC(=N)N)NC(=O)c4ccc5c(c4)C(=O)OC54c5ccc(O)cc5Oc5cc(O)ccc54)cc3)cc2)cc1)C(=O)NCc1ccc(CC(=O)NCC(=O)N[C@H](C)C(=O)N[C@H](C(=O)NCc2ccc(CC(=O)N[C@H](CC(N)=O)C(=O)N[C@H](CCCNC(=N)N)C(=O)N[C@@H](Cc3ccccc3)C(=O)NCc3ccc(CC(=O)N[C@H](C)C(=O)N[C@H](CO)C(=O)N[C@@H](Cc4ccccc4)C(=O)NCc4ccc(CC(=O)N5CCC[C@@H]5C(=O)N[C@H](CCCNC(=N)N)C(=O)N[C@@H](C)C(=O)NCc5ccc(CC(=O)N[C@H](Cc6ccccc6)C(=O)N[C@H](CCCCN)C(=O)NCC(=O)NCc6ccc(CC(N)=O)cc6)cc5)cc4)cc3)cc2)C(C)C)cc1 [IL6-65-3, Fluorescein-(D)Arg-(D)Trp-(L)Phe-PAM-(D)Glu-(D)Ser-(L)Phe-PAM-(D)Arg-(D)Ser-(L)Phe-PAM-(D)Trp-(D)Arg-(L)Leu-PAM-Gly-(D)Ala-(L)Val-PAM-(D)Asn-(D)Arg-(L)Phe-PAM-(D)Ala-(D)Ser-(L)Phe- PAM-(D)Pro-(D)Arg-(L)Ala-PAM-(D)Phe-(D)Lys-Gly-PAM] (5FAM-[dR][dW]F[X1][dE][dS]F[X1][dR][dS]F[X1][dW][dR]L[X1]G[dA]V[X1][dN][dR]F[X1][dA][dS]F[X1][dP][dR]A[X1][dF][dK]G-{NHCH2C6H4(4-CH2CONH2)}) |  | 90 nM
CC(C)C[C@H](NC(=O)[C@@H](CCCCN)NC(=O)[C@@H](Cc1c[nH]cn1)NC(=O)Cc1ccc(CNC(=O)[C@H](CC(C)C)NC(=O)[C@@H](CCCNC(=N)N)NC(=O)[C@@H](Cc2c[nH]c3ccccc23)NC(=O)Cc2ccc(CNC(=O)[C@H](Cc3ccccc3)NC(=O)[C@@H](Cc3ccc(O)cc3)NC(=O)[C@@H](Cc3c[nH]cn3)NC(=O)Cc3ccc(CNC(=O)[C@H](CC(C)C)NC(=O)[C@@H](CCCNC(=N)N)NC(=O)[C@@H](CC(C)C)NC(=O)Cc4ccc(CNC(=O)[C@H](Cc5ccccc5)NC(=O)[C@@H](Cc5c[nH]c6ccccc56)NC(=O)[C@@H](CCCNC(=N)N)NC(=O)c5ccc6c(c5)C(=O)OC65c6ccc(O)cc6Oc6cc(O)ccc65)cc4)cc3)cc2)cc1)C(=O)NCc1ccc(CC(=O)N[C@H](C)C(=O)N[C@H](Cc2ccc(O)cc2)C(=O)NCC(=O)NCc2ccc(CC(=O)N[C@H](Cc3c[nH]cn3)C(=O)N[C@H](CCC(=O)O)C(=O)N[C@@H](CC(C)C)C(=O)NCc3ccc(CC(=O)N4CCC[C@@H]4C(=O)N[C@H](CCCNC(=N)N)C(=O)N[C@@H](C)C(=O)NCc4ccc(CC(=O)N[C@H](Cc5ccccc5)C(=O)N[C@H](CCCCN)C(=O)NCC(=O)NCc5ccc(CC(N)=O)cc5)cc4)cc3)cc2)cc1 [IL6-65-4, Fluorescein-(D)Arg-(D)Trp-(L)Phe-PAM-(D)Leu-(D)Arg-(L)Leu-PAM-(D)His-(D)Tyr-(L)Phe-PAM-(D)Trp-(D)Arg-(L)Leu-PAM-(D)His-(D)Lys-(L)Leu-PAM-(D)Ala-(D)Tyr-Gly-PAM-(D)His-(D)Glu-(L)Leu- PAM-(D)Pro-(D)Arg-(L)Ala-PAM-(D)Phe-(D)Lys-Gly-PAM] (5FAM-[dR][dW]F[X1][dL][dR]L[X1][dH][dY]F[X1][dW][dR]L[X1][dH][dK]L[X1][dA][dY]G[X1][dH][dE]L[X1][dP][dR]A[X1][dF][dK]G-{NHCH2C6H4(4-CH2CONH2)}) |  | 37 nM
CC(C)C[C@H](NC(=O)[C@@H](CCCNC(=N)N)NC(=O)CNC(=O)Cc1ccc(CNC(=O)[C@H](Cc2ccccc2)NC(=O)[C@@H](Cc2ccccc2)NC(=O)[C@@H](CO)NC(=O)c2ccc3c(c2)C(=O)OC32c3ccc(O)cc3Oc3cc(O)ccc32)cc1)C(=O)NCc1ccc(CC(=O)N[C@H](CC(C)C)C(=O)N[C@H](CCCCN)C(=O)N[C@@H](CC(C)C)C(=O)NCc2ccc(CC(=O)N[C@H](Cc3c[nH]c4ccccc34)C(=O)N[C@H](CCCNC(=N)N)C(=O)N[C@@H](CC(C)C)C(=O)NCc3ccc(CC(=O)N[C@H](C)C(=O)N[C@H](CCCCN)C(=O)N[C@@H](Cc4ccccc4)C(=O)NCc4ccc(CC(=O)N[C@H](Cc5c[nH]cn5)C(=O)N[C@H](CCCCN)C(=O)N[C@@H](Cc5ccccc5)C(=O)NCc5ccc(CC(=O)N[C@H](C)C(=O)N[C@H](CCCNC(=N)N)C(=O)N[C@@H](CC(C)C)C(=O)NCc6ccc(CC(=O)N[C@@H](C(=O)N[C@H](Cc7c[nH]cn7)C(=O)N[C@@H](CC(C)C)C(=O)NCc7ccc(CC(=O)N[C@H](Cc8ccccc8)C(=O)N[C@H](CCCNC(=N)N)C(=O)NCC(=O)NCc8ccc(CC(N)=O)cc8)cc7)[C@H](C)O)cc6)cc5)cc4)cc3)cc2)cc1 [IL6-65-5] (5FAM-[dS][dF]F[X1]G[dR]L[X1][dL][dK]L[X1][dW][dR]L[X1][dA][dK]F[X1][dH][dK]F[X1][dA][dR]L[X1][dT][dH]L[X1][dF][dR]G-{NHCH2C6H4(4-CH2CONH2)}) | 33 nM | 
